Columns and labels:
IRE1α-cyto = target: T1, IRE1α-cyto (Homo sapiens, UniProt O75460); assay: In vitro IRE1α endonuclease (ribonuclease) assay; assay type: biochemical; conditions: 2.5 μM
T1 construct: purified the full cytosolic portion of IRE1α (His6-IRE1α-cyto) containing both kinase and endonuclease domains; 6x-His; made in house; host or cells: bacteria
Method: The in vitro ribonuclease assays were carried out using purified IRE1α-cyto essentially as described. Gonzalez and Walter, Methods Mol Biol 160: 25-36 (2001); Gonzalez et al., Embo J 18: 3119-3132 (1999). For each reaction, 5 μg purified IRE1α-cyto was incubated with 300 ng of fluorescein-labeled RNA stem-loop substrate at 37° C. in a total volume of 300 μl. Aliquots (50 μl) were withdrawn at the indicated times and mixed with an equal volume of stop solution. Id. Reactions were analyzed by SDS-PAGE using 10-20% acrylamide gradient gels. The sequence for the hXBP-1 3′ RNA stem-loop substrate is as follows: 5′[…] G 3′ (SEQ ID NO: 8). […]
HT1080 cells were exposed to DMSO vehicle (lane 1), irestatin 9389 (2.5 μM; lane 2) for 16 hours or Tm (5 μg/ml; lane 3) for 8 hours. Following treatments, cells were harvested, lysed, and analyzed by immunoblotting using anti-Grp78 antibody (top) or anti-actin (bottom) as a loading control. […] Cell lysates were analyzed by Western immunoblotting using anti-IRE1α (bottom) or anti-phospho-IRE1α antibodies (top). […] Lysates were analyzed by Western blot using antisera specific for phospho-JNK1 (top) or total JNK1 (bottom). […] F. Quantification of RNA cleavage kinetics. […] Samples were analyzed as in (E).
Next we determined whether irestatin 9389 inhibited the endonuclease function of IRE1α. […]

XBP-luciferase reporter = assay: In vivo bioluminescence imaging of XBP-luciferase tumor xenografts; set-up: species or system mouse
Method: HT1080 fibrosarcoma cells (2×10^6) stably expressing the XBP-luciferase reporter were implanted s.c. into severe combined immune deficient (SCID) mice. Ten minutes prior to imaging, mice were injected i.p. with D-luciferin (150 mg/kg) solubilized in PBS. Optical bioluminescence imaging was performed using the IVIS charged-coupled device camera system (Caliper Life Sciences, Hopkinton, Mass.). Mice were imaged for 1-4 minutes per acquisition scan. Signal intensities were analyzed using Living Image software (Caliper).
A. Irestatin 9389 impairs IREla activity in implanted tumor xenografts. Equal numbers (2×10^6) of XBP-luciferase or CMV-luciferase reporter cells were implanted s.c. into SCID mice. After one week, mice were treated with irestatin 9389 (50 mg/kg), followed by optical bioluminescence imaging. B. Inhibition of tumor growth by irestatin 9389. […] Tumor volumes were calculated based on caliper measurements taken every 3-5 days. Data points represent the mean volume calculated from at least 7 tumors per group, with SEM shown in one direction. […]
The increased sensitivity of irestatin-treated cells to hypoxic stress in vitro indicate that selective inhibition of IRE1α signaling could impact tumor growth. […] In contrast, XBP-1s was not detected in normal pancreas specimens (0/20), and infrequently observed in chronic pancreatitis (1/29) (FIG. 15). […]

T1 sequence (O75460 465-977 limits assumed): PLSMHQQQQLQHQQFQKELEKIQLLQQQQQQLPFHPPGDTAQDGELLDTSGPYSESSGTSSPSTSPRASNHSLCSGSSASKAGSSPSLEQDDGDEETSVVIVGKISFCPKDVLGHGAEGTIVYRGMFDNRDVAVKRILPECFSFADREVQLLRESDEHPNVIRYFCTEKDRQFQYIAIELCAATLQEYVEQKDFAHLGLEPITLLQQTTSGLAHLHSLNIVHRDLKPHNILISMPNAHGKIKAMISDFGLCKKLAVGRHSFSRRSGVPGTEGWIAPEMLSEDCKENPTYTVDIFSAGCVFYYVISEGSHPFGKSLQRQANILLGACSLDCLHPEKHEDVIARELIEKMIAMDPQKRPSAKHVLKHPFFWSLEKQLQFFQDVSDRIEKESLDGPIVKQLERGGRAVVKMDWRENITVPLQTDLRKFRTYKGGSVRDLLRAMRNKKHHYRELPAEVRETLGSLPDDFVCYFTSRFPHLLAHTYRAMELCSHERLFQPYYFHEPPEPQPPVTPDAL

`Cc1csc(NC(=O)CSc2nc3c(c(C(F)(F)F)c2C#N)CCC3)n1` [Compound 9389] was tested, and the “cleavage of XBP-1 RNA substrate by His6-IRE1α-cyto” value (IRE1α-cyto) was “strongly inhibited cleavage”, the “duration of robust inhibition of the XBP-luciferase reporter after injection” value (XBP-luciferase reporter; SCID mice, single doses of 50-60 mg/kg) was 6 to 8 h and the “time at which XBP-luciferase signal returned to basal levels” value (XBP-luciferase reporter; after treatment) was at most 24 h.

— patent US20090291857A1, “METHODS TO IDENTIFY INHIBITORS OF THE UNFOLDED PROTEIN RESPONSE” (THE BOARD OF TRUSTEES OF THE LELAND STANFORD JUNIOR …, priority 2006, published 2009)
